Like-named read-outs stand apart in the source and are kept apart here. Blank lines part the entries; values can stand above or below the compound they belong to.
Biological target: T1, uterine OT receptors (Rattus norvegicus, UniProt P70536)
T1 construct: using a crude membrane preparation of uteri; from tissue; host or cells: uterus of DES-treated rats, crude membrane preparation
T1 sequence (P70536 1-388): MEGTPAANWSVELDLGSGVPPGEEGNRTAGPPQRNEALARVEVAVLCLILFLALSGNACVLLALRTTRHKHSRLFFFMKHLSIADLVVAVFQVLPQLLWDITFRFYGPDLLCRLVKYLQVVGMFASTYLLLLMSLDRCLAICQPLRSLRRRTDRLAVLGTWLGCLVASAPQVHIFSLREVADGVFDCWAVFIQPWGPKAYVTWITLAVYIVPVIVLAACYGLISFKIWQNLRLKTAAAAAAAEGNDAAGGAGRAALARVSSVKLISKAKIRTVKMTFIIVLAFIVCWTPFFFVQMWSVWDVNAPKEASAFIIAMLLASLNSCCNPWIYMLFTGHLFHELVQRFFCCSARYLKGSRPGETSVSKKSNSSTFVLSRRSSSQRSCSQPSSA
Test: [³H]Oxytocin radioligand binding assay, crude membrane preparation of uteri from DES-treated rats
Conditions: for inhibition at 0.1 µM: read-out: inhibition at 100 nM; for inhibition at 1 µM: read-out: inhibition at 1,000 nM

[1] = competition with 1 nM [³H]OT, 60 minutes, 22°C, concentration that inhibits 50% of OT, read-out: IC50

Method: The high affinity binding of [³H] Oxytocin (OT)([tyrosyl, 3,5-[³H]OT; 30-60 Ci/mmol; New England Nuclear. Boston, MA) to uterine OT receptors was based on an assay (Fuchs, A-R; Fuchs, F; Soloff, MS. 1985 J. Clin. Endocrinol. Metab. 60:37) using a crude membrane preparation of uteri taken from diethylstilbestrol dipropionate (DES)-treated (0.3 mg/kg, ip; 18-24) rats. Competition studies were conducted at equilibrium (60 minutes; 22°C) using 1 nM[³H]OT in the following assay buffer: 50 mM Tris-HCl, 5 mM MgCl₂, and 0.1% BSA, pH 7.4. Nonspecific binding (10% of the total binding) was determined using 1 mM unlabeled OT and the binding reaction was terminated by filtration through glass fiber filters using a cell harvester (model 7019, Skatron, Inc., Sterling, VA). IC₅₀ (the concentration of tested compound that inhibits 50% of OT) was reported, unless otherwise noted.

Compound: 1-((7,7-Dimethyl-2-(3-acetamido-3-carboxy)propylidine-bicyclo(2.2.1)-heptan-1-yl)methanesulfonyl)-4-(2-methylphenyl)piperazine [Example 29]
inhibition at 1,000 nM (at 1,000 nM, 1 µM): 78% inhibition at 1,000 nM

Compound: CCOC(=O)C(CC=C1CC2CCC1(CS(=O)(=O)N1CCN(c3ccccc3C)CC1)C2(C)C)(NC(C)=O)C(=O)OCC (stereo not shown) [Example 28, 1-((7,7-Dimethyl-2-(3-acetamido-3,3'-di(ethoxycarbonyl))propylidine-bicyclo(2.2.1)heptan-1-yl)methanesulfonyl)-4-(2-methylphenyl)piperazine]
inhibition at 0.1 µM: 35%

Compound: Cc1ccccc1N1CCN(S(=O)(=O)C[C@]23CC[C@H](C[C@@H]2NC(=O)Cc2c[nH]cn2)C3(C)C)CC1 [Example 43]
IC50 [1]: 110 nM

Compound: Cc1ccccc1N1CCN(S(=O)(=O)CC23CCC(CC24CO4)C3(C)C)CC1 (stereo not shown) [Example 18, 1-((7,7-Dimethyl-2-spiro-epoxy-bicyclo(2.2.1)heptan-1-yl)methane-sulfonyl)-4-(2-methylphenyl)piperazine]
inhibition at 1 µM: 75%

Compound: Cc1ccccc1N1CCN(S(=O)(=O)CC23CCC(CC2=CCN)C3(C)C)CC1 (stereo not shown) [Example 16, 1-((7,7-dimethyl-2-(2-amino)ethylidine-bicyclo-(2.2.1)heptan-1-yl)methanesulfonyl)-4-(2-methyl-phenyl)piperazine]
inhibition at 1 µM: 64%

Compound: Cc1ccccc1N1CCN(S(=O)(=O)C[C@]23CC[C@H](C[C@@H]2NC(=O)[C@H](CCS(C)(=O)=O)NC(=O)Cc2c[nH]cn2)C3(C)C)CC1 [Example 37, 1-((7,7-Dimethyl-2-endo-(2s-(imidazol-4-ylacetyl-amino)-4-(methyl-sulfonyl)butyramido)-bicyclo(2.2.1)-heptan-1-yl)methanesulfonyl)-4-(2-methylphenyl)-piperazine]
IC50: 1.2 nM

Compound: Cc1ccccc1N1CCN(S(=O)(=O)C[C@]23CC[C@H](C[C@@H]2N(C)C(=O)OCc2ccccc2)C3(C)C)CC1 [Example 40, 1-((7,7-Dimethyl-2-endo-methyl(benzyloxy-carbonyl)amino-bicyclo(2.2.1)-heptan-1-yl)methanesulfonyl)4-(2-methylphenyl)piperazine]
inhibition at 1 µM: 35%

Compound: Cc1ccccc1N1CCN(S(=O)(=O)CC23CCC(C=C2C(=O)NCCc2cnc[nH]2)C3(C)C)CC1 (stereo not shown) [Example 22, 1-((7,7-Dimethyl-2-(4-imidazolyl)ethylaminocarbonyl-bicyclo(2.2.1)hept-2-en-1-yl)methanesulfonyl)-4-(2-methylphenyl)piperazine]
inhibition at 1 µM: 78%

Now from value to compound:

inhibition at 0.1 µM: 23%
Compound: C=CC1(O)CC2CCC1(CS(=O)(=O)N1CCN(c3ccccc3C)CC1)C2(C)C (stereo not drawn) [Example 12, 1-((7,7-dimethyl-2-exo-hydroxy-2-endo-ethenyl-bicyclo(2.2.1)heptan-1-yl)methanesulfonyl)-4-(2-methylphenyl)piperazine]

inhibition at 0.1 µM: 91%
Compound: Cc1ccccc1N1CCN(S(=O)(=O)C[C@]23CC[C@H](C[C@@H]2NC(=O)[C@H](CCS(C)(=O)=O)NC(=O)OC(C)(C)C)C3(C)C)CC1 [Example 35, 1-((7,7-Dimethyl-2-endo-(2S-(tert-butyloxycarbonyl-amino)-4-(methyl-sulfonyl)-butyramido)-bicyclo(2.2.1)-heptan-1-yl)methanesulfonyl)-4-(2-methylphenyl)-piperazine]

IC50 [1]: 26 nM
Compound: Cc1ccccc1N1CCN(S(=O)(=O)C[C@]23CC[C@H](C[C@@H]2NC(=O)C(C)c2c[nH]cn2)C3(C)C)CC1 (stereo partly drawn) [Example 44, 1-((7,7-Dimethyl-2-endo-(2-(4-imidazolyl)propanoyl)-amino-bicyclo-(2.2.1)heptan-1-yl)methanesulfonyl)-4-(2-methylphenyl)piperazine]

inhibition at 1 µM: 38%
Compound: Cc1ccccc1N1CCN(S(=O)(=O)CC23CCC(C=C2C(=O)O)C3(C)C)CC1 (stereo not shown) [Example 21, 1-((7,7-Dimethyl-2-carboxy-bicyclo(2.2.1)hept-2-en-1-yl)methanesulfonyl)-4-(2-methylphenyl)piperazine]

inhibition at 1 µM: 44%
Compound: Cc1ccccc1N1CCN(S(=O)(=O)CC23CCC(CC2=CCN=[N+]=[N-])C3(C)C)CC1 (stereo not shown) [Example 15, 1-((7,7-dimethyl-2-(2-azido)ethylidine-bicyclo-(2.2.1)heptan-1-yl)methanesulfonyl)-4-(2-methyl-phenyl)piperazine]
